Data taken from patent US20080234318A1, “Chemical Compounds” (priority 2005, published 2008).

System: HIV-1
Test: HOS HIV-1 infectivity assay
Format: cell-based
Details: Human immunodeficiency virus 1, BAL / IIIB, HOS cells expressing hCXCR4/hCCR5/hCD4/pHIV-LTR-luciferase, virus strain (Ba-L or IIIB) not given, read-out: Activity Level
Experimental: Compounds were profiled against two HIV-1 viruses, the M-tropic (CCR5 utilizing) Ba-L strain and the T-tropic (CXCR4 utilizing) IIIB strain. Both viruses were propagated in human peripheral blood lymphocytes. Compounds were tested for there ability to block infection of the HOS cell line (expressing hCXCR4/hCCR5/hCD4/pHIV-LTR-luciferase) by either HIV-1 Ba-L or HIV-1 IIIB. Compound cytotoxicity was also examined in the absence of virus addition.
HOS cells (expressing hCXCR4/hCCR5/hCD4/pHIV-LTR-luciferase) were harvested and diluted in Dulbeccos modified Eagles media supplemented with 2% FCS and non-essential amino acid to a concentration of 60,000 cells/ml. The cells were plated into 96-well plates (100 ul per well) and the plates were placed in a tissue culture incubator (37° C.; 5% CO2/95% air) for a period of 24h.
Subsequently, 50 ul of the desired drug solution (4 times the final concentration) was added to each well and the plates were returned to the tissue culture incubator (37° C.; 5% CO2/95% air) for 1h. Following this incubation 50 ul of diluted virus was added to each well (approximately 2 million RLU per well of virus). The plates were returned to the tissue culture incubator (37° C.; 5% CO2/95% air) and were incubated for a further 96h.
Following this incubation the endpoint for the virally infected cultures was quantified following addition of Steady-Glo Luciferase assay system reagent (Promega, Madison, Wis.). Cell viability or non-infected cultures was measured using a CellTiter-Glo luminescent cell viability assay system (Promega, Madison, Wis.). All luminescent readouts are performed on a Topcount luminescence detector (Packard, Meridien, Conn.).

SMILES	IC50
CN1CCN(c2cccc3nc(CN(C)[C@H]4CCCc5cccnc54)c(CNS(=O)(=O)c4ccccc4)n23)CC1 [Example 37, N-{[5-(4-Methyl-1-piperazinyl)-2-({methyl[(8S)-5,6,7,8-tetrahydro-8-quinolinyl]amino}methyl)imidazo[1,2-a]pyridin-3-yl]methyl}benzenesulfonamide]	< 100 nM
CN1CCN(c2cccc3nc(CN(C)[C@H]4CCCc5cccnc54)c(CNS(=O)(=O)Cc4ccccc4)n23)CC1 [Example 38, N-{[5-(4-Methyl-1-piperazinyl)-2-({methyl[(8S)-5,6,7,8-tetrahydro-8-quinolinyl]amino}methyl)imidazo[1,2-a]pyridin-3-yl]methyl}-1-phenylmethanesulfonamide]	< 100 nM
CCNC(=O)NCc1c(CN(C)[C@H]2CCCc3cccnc32)nc2cccc(N3CCN(C)CC3)n12 [Example 39, N-Ethyl-N′-{[5-(4-methyl-1-piperazinyl)-2-({methyl[(8S)-5,6,7,8-tetrahydro-8-quinolinyl]amino}methyl)imidazo[1,2-a]pyridin-3-yl]methyl}urea]	< 100 nM
CC(C)NC(=O)NCc1c(CN(C)[C@H]2CCCc3cccnc32)nc2cccc(N3CCN(C)CC3)n12 [Example 40, N-(1-Methylethyl)-N′-{[5-(4-methyl-1-piperazinyl)-2-({methyl[(8S)-5,6,7,8-tetrahydro-8-quinolinyl]amino}methyl)imidazo[1,2-a]pyridin-3-yl]methyl}urea]	< 100 nM
CN1CCN(c2cccc3nc(CN(C)[C@H]4CCCc5cccnc54)c(CNC(=O)Nc4ccccc4)n23)CC1 [Example 41, N-{[5-(4-Methyl-1-piperazinyl)-2-({methyl[(8S)-5,6,7,8-tetrahydro-8-quinolinyl]amino}methyl)imidazo[1,2-a]pyridin-3-yl]methyl}-N′-phenylurea]	< 100 nM
CN1CCN(c2cccc3nc(CN(C)[C@H]4CCCc5cccnc54)c(CNC(=O)Nc4ccc(N(C)C)cc4)n23)CC1 [Example 42, N-[4-(Dimethylamino)phenyl]-N′-{[5-(4-methyl-1-piperazinyl)-2-({methyl[(8S)-5,6,7,8-tetrahydro-8-quinolinyl]amino}methyl)imidazo[1,2-a]pyridin-3-yl]methyl}urea]	< 100 nM
COc1ccc(NC(=O)NCc2c(CN(C)[C@H]3CCCc4cccnc43)nc3cccc(N4CCN(C)CC4)n23)cc1 [Example 43, N-[4-(Methyloxy)phenyl]-N′-{[5-(4-methyl-1-piperazinyl)-2-({methyl[(8S)-5,6,7,8-tetrahydro-8-quinolinyl]amino}methyl)imidazo[1,2-a]pyridin-3-yl]methyl}urea]	< 100 nM
CN1CCN(c2cccc3nc(CN(C)[C@H]4CCCc5cccnc54)c(CNC(N)=O)n23)CC1 [Example 44, N-{[5-(4-Methyl-1-piperazinyl)-2-({methyl[(8S)-5,6,7,8-tetrahydro-8-quinolinyl]amino}methyl)imidazo[1,2-a]pyridin-3-yl]methyl}urea]	< 100 nM
